Where two headings read alike, the source gives them in different places.
Experiments:
[1] = test system: periplasmic carboxypeptidase in E. coli BL21 (DE3) extracts; type: biochemical
Description: The pI shift upon incubation of ubiquitin with carboxypeptidase B was used as a convenient assay to test for carboxyl terminal glycine dipeptide processing in E. coli BL21 (DE3) extracts.
We tested a variety of metal salts for the ability to inhibit ubiquitin inactivation.

[2] = test system: carboxypeptidase B; experiment: pI shift assay (isoelectric focusing after carboxypeptidase B) for intact carboxyl terminal glycine dipeptide
Text: Previous work has shown that the carboxyl terminal glycine dipeptide of ubiquitin is acutely sensitive to cleavage by trypsin-like activities (Haas, A. L., et al., J. Biol. Chem. 260:4694-4703, 1985; Wilkinson, K. D. and Audhya, T. K., J. Biol. Chem. 256:9235-9241, 1981). […] The specificity of carboxypeptidase B for lysine and arginine precludes a similar pI shift for intact ubiquitin in which R74 is masked by the glycine dipeptide (Haas, A. L., et al., supra, 1985).

[3] = test system: rabbit reticulocyte ubiquitin activating enzyme (E1); type: biochemical
Description: The incorporation of ^32 PPi into ATP was measured by adsorbing the resulting ^32 P-labeled ATP onto charcoal and counting the bound radioactivity by Cerenkov radiation (Haas, A. L. and Rose, I. A., supra, 1982). Nonspecifically-bound ^32 PPi was corrected by subtracting radioactivity in control incubations conducted in the absence of added E1 (Haas, A. L. and Rose, I. A., supra, 1982).
Since these measurements were conducted in the absence of added AMP, the kinetic constants reflect step 3 of the E1 reaction involving formation of the final ternary complex (Haas, A. L. and Rose, I. A. J. Biol. Chem., .supra, 1982).

[4] = test system: A549 human lung carcinoma cell extract; experiment: In vitro conjugation of 125I-UCRP to cellular proteins; type: biochemical; conditions: for inhibition of 125I-UCRP conjugation by excess unlabeled protein: isotope dilution, parallel incubations
Description: Confluent monolayer cultures of A549 human lung carcinoma cells were grown in Dulbecco's modified Eagle's medium supplemented with 10% (v/v) heat-inactivated fetal bovine serum. Cultures were maintained at 37° C. in a humidified 5% CO2 atmosphere. Cultures of A549 cells were induced by adding IFNβ to a final concentration of 1000 IU/ml (Loeb, K. R. and Haas, A. L., supra, 1992). Following 24 hours induction, cells were rinsed twice with PBS then harvested by scraping directly into 50 mM Tris-Cl (pH 7.6) containing 2 mMATP, 10 mM MgCl2, and 1 mM DTT (100 μl/100 mm plate). The cells were then briefly sonicated and the extracts used without further fractionation.

[5] = test system: A549 human lung carcinoma cell extract; conditions: previous preparations, Loeb and Haas 1992; Loeb 1993; cited from earlier work
[6] = test system: rabbit reticulocyte ubiquitin activating enzyme (E1); conditions: cited from earlier work
[7] = biological target: T1, ubiquitin activating enzyme (E1) (Oryctolagus cuniculus, UniProt Q29504); experiment: Stoichiometry and kinetics of E1-bound adenylate formation (TCA-precipitable radioactivity with [2,8-3H]ATP); type: biochemical; conditions: for [3H]adenylate formation: 1 pmol of E1, inorganic pyrophosphatase
T1 construct: from rabbit reticulocytes, rabbit liver, and human erythrocytes; from tissue; host or cells: rabbit reticulocytes (inferred for this assay)
T1 sequence (Q29504 1-1058): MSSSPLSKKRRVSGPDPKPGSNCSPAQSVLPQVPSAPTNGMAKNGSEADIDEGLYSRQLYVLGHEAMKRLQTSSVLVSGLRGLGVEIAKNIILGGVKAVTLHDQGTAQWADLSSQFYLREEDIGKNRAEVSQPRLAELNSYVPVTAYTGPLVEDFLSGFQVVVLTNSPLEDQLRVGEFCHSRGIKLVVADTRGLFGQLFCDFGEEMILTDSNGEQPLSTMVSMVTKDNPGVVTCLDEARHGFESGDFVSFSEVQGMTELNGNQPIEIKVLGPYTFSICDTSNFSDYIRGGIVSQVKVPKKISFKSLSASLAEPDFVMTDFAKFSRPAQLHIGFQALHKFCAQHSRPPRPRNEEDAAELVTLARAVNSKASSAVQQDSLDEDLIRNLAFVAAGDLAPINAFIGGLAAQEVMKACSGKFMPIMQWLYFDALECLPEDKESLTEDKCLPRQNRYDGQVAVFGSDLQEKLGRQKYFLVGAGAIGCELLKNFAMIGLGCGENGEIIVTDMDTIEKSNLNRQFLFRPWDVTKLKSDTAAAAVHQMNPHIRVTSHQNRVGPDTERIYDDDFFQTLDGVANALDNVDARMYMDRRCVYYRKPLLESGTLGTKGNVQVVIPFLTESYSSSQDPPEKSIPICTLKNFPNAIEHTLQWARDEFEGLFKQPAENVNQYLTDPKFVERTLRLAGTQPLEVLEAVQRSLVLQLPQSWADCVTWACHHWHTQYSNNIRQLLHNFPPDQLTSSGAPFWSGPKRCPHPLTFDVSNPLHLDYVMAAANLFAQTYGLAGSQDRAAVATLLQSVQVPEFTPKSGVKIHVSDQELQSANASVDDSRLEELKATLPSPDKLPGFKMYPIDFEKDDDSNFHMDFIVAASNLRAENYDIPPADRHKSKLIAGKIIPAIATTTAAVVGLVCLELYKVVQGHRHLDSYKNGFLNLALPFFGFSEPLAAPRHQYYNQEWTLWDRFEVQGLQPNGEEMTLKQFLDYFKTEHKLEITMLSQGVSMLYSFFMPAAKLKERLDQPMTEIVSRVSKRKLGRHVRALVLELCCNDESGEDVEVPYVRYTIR
Text: Recent studies by Burch and Haas have shown that mutagenesis of specific ubiquitin residues sufficiently compromises binding of the resulting adenylate within the E1 active site to allow dissociation of the intermediate (Burch, T. J. and Haas, A. L., supra, 1994). The free but not the bound pool of ubiquitin [^3 H]adenylate is sensitive to cleavage by ubiquitin carboxyl terminal hydrolase (Burch, T. J. and Haas, A. L., supra, 1994; Pickart, C. M. and Rose, I. A., J. Biol. Chem. 260:7903-7910,1985).

Compound: [Cl][Hg][Cl] [HgCl2]
- inhibiting UCRP inactivation [1]: effective

Compound: UCRP generated from UCRP-R: Intact UCRP resulting from removal of the arginine cap of purified UCRP-R
- pI shift upon incubation with carboxypeptidase B [2]: absence of a pI shift
- K1/2 ([3]; UCRP 5 to 50 μM, 20 nM E1, 37° C., absence of added AMP (step 3)): 24 µM

Compound: ^125 I-UCRP: Intact UCRP isolated in the presence of CoCl2, labeled with 125I
- dependence of conjugation on ATP and ATP regenerating system ([4]; both extracts): absolutely dependent
- rate of conjugation to cellular proteins ([4]; extracts from A549 cultures induced 24 hours with 1000 IU/ml interferon-β (+IFN), versus uninduced): significantly greater
- rate of conjugation to cellular proteins ([4]; extracts from uninduced cells (-IFN), 90 minutes incubation): low but measurable rate

Compound: recombinant ^125 I-UCRP: Radioiodinated recombinant UCRP of the previous, proteolytically inactivated preparations
- conjugation when added to fresh extracts of A549 cells [5]: unable to demonstrate conjugation

Compound: [Cl-].[Cl-].[Co+2] [CoCl2]
- ubiquitin and UCRP glycine dipeptide excision ([1]; 5 mM): quantitatively blocks
- inhibiting ubiquitin inactivation ([1]; among the metal salts tested): most effective

Compound: pure intact native UCRP: Pure intact native UCRP, K1/2 from Narasimhan et al. 1996
- K1/2 ([6]; pure intact native UCRP, Narasimhan et al. 1996 in press): 24 µM

Compound: ubiquitin cross-reactive protein [UCRP]
- first order rate constant of [3H]adenylate formation [7]: 0.42 min⁻¹
- [3H]adenylate formation ([7]; after 5 minutes): 0.11 pmol
- inhibition of 125I-UCRP conjugation by excess unlabeled protein [4]: marked inhibition
- K1/2 [3]: 24 µM
- substrate inhibition [3]: no substrate inhibition

Compound: ubiquitin
- first order rate constant of [3H]adenylate formation [7]: ≥ 6 min⁻¹
- [3H]adenylate formation ([7]; within a 1 minute incubation): equivalent amount
- K1/2 ([6]; step 3 of ubiquitin-supported reaction, values taken from Haas and Rose 1982): 1.2 µM
- substrate inhibition ([6]; ubiquitin at high concentrations, Haas and Rose 1982): pronounced substrate inhibition
- kcat ([6]; ubiquitin-supported reaction, values taken from Haas and Rose 1982): 9.6 s⁻¹
- inhibition of 125I-UCRP conjugation by excess unlabeled protein [4]: not

Compound: [Cl][Cd][Cl] [CdCl2]
- inhibiting UCRP inactivation [1]: effective

Compound: O=C(O)CN(CCN(CC(=O)O)CC(=O)O)CC(=O)O [EDTA]
- rate of ubiquitin inactivation [1]: stimulated

Reference: patent US5714347A (priority 1995, dated 1998)
